Data on eleven compounds can be found in ChEMBL document CHEMBL1201862, “PubChem BioAssay data set” (2004).

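These data come from cells grown in 96-well plates and exposed to compound for 48 hours at five concentrations. Here, GI50 denotes the concentration required for 50% inhibition of growth.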 Activity calls are given as the source filed them. Rule as the data show it: active = GI50 up to about 1.1 µM and inactive = higher.

Some test systems named below: 786-0; CCRF-CEM; DLD-1; DMS-114; HL-60; K562; KM-20L2; KM12; LOX IMVI; M19-MEL; NCI-H226; NCI-H460; NCI-H522; OVCAR-5; SF-539; SNB-78; TK-10; UACC-62.
What all share (assay): NCI tumour cell line growth inhibition, 48 h

Consider `Nc1ncnc2c1ncn2C1OC(CSC(F)(F)F)C(O)C1O` (stereo not drawn), for which the GI50 in the experiment on 786-0, in the experiment with CCRF-CEM, in the experiment on DLD-1, in the experiment on DMS-114, in the experiment on HL-60 and with K562 was > 100 µM (inactive) each time. Also, the GI50 in the experiment on KM-20L2, in the experiment with KM12, in the experiment with LOX IMVI, in the experiment with M19-MEL, in the experiment on NCI-H226 and with NCI-H460 was > 100 µM (inactive) each time. For the same compound, the GI50 in the experiment with NCI-H522, with OVCAR-5, in the experiment on SF-539, with SNB-78, with TK-10 and in the experiment on UACC-62 was > 100 µM (inactive) in each case.
With `N#CC(C(=N/O)/C(=N\O)C(C#N)c1ccccc1)c1ccccc1` (stereo not drawn), the GI50 in the experiment on 786-0, in the experiment with CCRF-CEM, with DLD-1, in the experiment with DMS-114, with HL-60 and in the experiment with K562 was > 100 µM (inactive) throughout. Besides, the GI50 in the experiment on KM-20L2 was > 100 µM (inactive); in the experiment on KM12, > 100 µM (inactive); with LOX IMVI it was 87.3 µM (inactive); with M19-MEL, 99.1 µM (inactive); in the experiment with NCI-H226, > 100 µM (inactive); with NCI-H460 it was > 100 µM (inactive). Besides, the GI50 in the experiment on NCI-H522, with OVCAR-5, in the experiment with SF-539, with SNB-78, with TK-10 and in the experiment on UACC-62 was > 100 µM (inactive) in each case.
With `CCCCNS(=O)(=O)c1ccc(-c2ccc3c(c2)-c2ccc(S(=O)(=O)NCCCC)cc2S3(=O)=O)cc1`, the GI50 in the experiment on 786-0 is 11.6 µM (inactive); in the experiment on CCRF-CEM, 26.1 µM (inactive); in the experiment with DLD-1, 43.6 µM (inactive); with DMS-114, 7.52 µM (inactive); with HL-60, > 100 µM (inactive); in the experiment with K562, 3.03 µM (inactive). Besides, the GI50 in the experiment on KM-20L2 was 4.15 µM (inactive); in the experiment with KM12, 22.9 µM (inactive); with LOX IMVI, 15 µM (inactive); in the experiment on M19-MEL, 21.5 µM (inactive); with NCI-H226, 12.6 µM (inactive); in the experiment on NCI-H460 it was 10.4 µM (inactive). Also, the GI50 in the experiment on NCI-H522 is 14.5 µM (inactive); in the experiment on OVCAR-5, > 100 µM (inactive); with SF-539, 12.1 µM (inactive); with SNB-78 it was 12.4 µM (inactive); with TK-10, 28.8 µM (inactive); in the experiment with UACC-62, 13.2 µM (inactive).
Consider `O=C(O)/C=C/c1ccc(O)c(O)c1` [CAFFEIC ACID], for which the GI50 with 786-0 is > 100 µM (inactive); in the experiment on CCRF-CEM, > 57.5 µM (inactive); in the experiment on DLD-1 it was > 100 µM (inactive); in the experiment on DMS-114, > 100 µM (inactive); in the experiment with HL-60, > 100 µM (inactive); with K562, > 100 µM (inactive). For the same compound, the GI50 in the experiment with KM-20L2, in the experiment with KM12, in the experiment with LOX IMVI, in the experiment with M19-MEL, in the experiment on NCI-H226 and with NCI-H460 was > 100 µM (inactive) throughout. Also, the GI50 in the experiment with NCI-H522 is 97.5 µM (inactive); in the experiment with OVCAR-5, > 100 µM (inactive); in the experiment on SF-539, > 100 µM (inactive); in the experiment with SNB-78 it was > 100 µM (inactive); in the experiment on TK-10, > 100 µM (inactive); in the experiment with UACC-62, > 100 µM (inactive).
On to `CCN(CC)CCOc1ccc(C(O)(Cc2ccc(OC)cc2)c2ccccc2)cc1` (stereo not drawn), for which the GI50 in the experiment on 786-0 was 17.3 µM (inactive); in the experiment on CCRF-CEM, 17.6 µM (inactive); with DLD-1, 18.3 µM (inactive); in the experiment with DMS-114, 14.9 µM (inactive); in the experiment on HL-60 it was 7.52 µM (inactive); in the experiment on K562 it was 4.39 µM (inactive). The GI50 is 3.24 µM (inactive) with KM-20L2; 17.3 µM (inactive) with KM12; 14.3 µM (inactive) with LOX IMVI; 15.4 µM (inactive) in the experiment with M19-MEL; 26.4 µM (inactive) with NCI-H226; 22.2 µM (inactive) in the experiment on NCI-H460. For the same compound, the GI50 in the experiment with NCI-H522 is 20.5 µM (inactive); with OVCAR-5, 20 µM (inactive); in the experiment on SF-539, 12.4 µM (inactive); with SNB-78, 24.5 µM (inactive); with TK-10 it was 28.7 µM (inactive); in the experiment on UACC-62 it was 16.7 µM (inactive).
As to `Clc1ccc(-c2c(C3=NCCN3)nnn2-c2ccc(Cl)cc2)cc1`, the GI50 in the experiment with 786-0 is 21.8 µM (inactive); with CCRF-CEM, 22.6 µM (inactive); in the experiment on DLD-1 it was 27.9 µM (inactive); with DMS-114, 16.4 µM (inactive); in the experiment with HL-60, 17.5 µM (inactive); in the experiment with K562, 18 µM (inactive). In addition, the GI50 was 15.7 µM (inactive) in the experiment with KM-20L2; 19.8 µM (inactive) in the experiment on KM12; 39.4 µM (inactive) in the experiment on LOX IMVI; 16.6 µM (inactive) with M19-MEL; 60.4 µM (inactive) with NCI-H226; 14.8 µM (inactive) in the experiment on NCI-H460. The GI50 with NCI-H522 was 16 µM (inactive); with OVCAR-5, 33 µM (inactive); in the experiment with SF-539 it was 18.2 µM (inactive); with SNB-78, 18.8 µM (inactive); with TK-10 it was 19.7 µM (inactive); with UACC-62, 18.1 µM (inactive).
With `[N-]=[N+]=NCC(O)Cn1cnc2c(NC(=O)c3ccccc3)ncnc21` (stereo not drawn), the GI50 in the experiment with 786-0 was 41.8 µM (inactive); in the experiment on CCRF-CEM, > 100 µM (inactive); in the experiment with DLD-1 it was > 100 µM (inactive); in the experiment on DMS-114, 67.1 µM (inactive); in the experiment with HL-60 it was > 100 µM (inactive); in the experiment with K562 it was 79.4 µM (inactive). Besides, the GI50 in the experiment with KM-20L2, in the experiment with KM12, in the experiment on LOX IMVI, in the experiment with M19-MEL, with NCI-H226 and in the experiment on NCI-H460 was > 100 µM (inactive) each time. Besides, the GI50 with NCI-H522, in the experiment with OVCAR-5, in the experiment with SF-539, in the experiment with SNB-78, in the experiment with TK-10 and in the experiment with UACC-62 was > 100 µM (inactive) each time.
Take `Cc1c2nc3ccccc3sc-2cc(=O)c1C`: the GI50 in the experiment on 786-0 is > 100 µM (inactive); in the experiment on CCRF-CEM it was 20.9 µM (inactive); with DLD-1, 12.7 µM (inactive); in the experiment on DMS-114, 10.2 µM (inactive); in the experiment with HL-60, 14.1 µM (inactive); in the experiment with K562, 24.3 µM (inactive). In addition, the GI50 is > 72.6 µM (inactive) with KM-20L2; 76.6 µM (inactive) in the experiment on KM12; 29.8 µM (inactive) in the experiment on LOX IMVI; 15.8 µM (inactive) in the experiment on M19-MEL; > 100 µM (inactive) in the experiment on NCI-H226; 12.4 µM (inactive) with NCI-H460. In addition, the GI50 in the experiment on NCI-H522 was > 57.3 µM (inactive); in the experiment with OVCAR-5, > 95.5 µM (inactive); in the experiment on SF-539 it was 44.9 µM (inactive); with SNB-78 it was > 24.3 µM (inactive); with TK-10 it was > 100 µM (inactive); in the experiment with UACC-62, 15.5 µM (inactive).
`N#CC(Sc1ccccc1)C(N)=O` (stereo not drawn): the GI50 with 786-0, with CCRF-CEM, in the experiment on DLD-1, in the experiment with DMS-114, with HL-60 and in the experiment with K562 was > 100 µM (inactive) in each case. Besides, the GI50 with KM-20L2 was > 100 µM (inactive); in the experiment with KM12 it was > 100 µM (inactive); in the experiment on LOX IMVI it was > 100 µM (inactive); in the experiment on M19-MEL it was > 100 µM (inactive); in the experiment with NCI-H226, > 100 µM (inactive); in the experiment with NCI-H460 it was > 10 µM (inactive). Also, the GI50 in the experiment with NCI-H522, in the experiment with OVCAR-5, in the experiment with SF-539, in the experiment on SNB-78, in the experiment on TK-10 and with UACC-62 was > 100 µM (inactive) in each case.
As to `c1ccc2c(OCCSCCCCCCCCCCSCCOc3cccc4ccccc34)cccc2c1`, the GI50 with 786-0, in the experiment on CCRF-CEM, with DLD-1, in the experiment with DMS-114, in the experiment with HL-60 and in the experiment with K562 was > 100 µM (inactive) in each case. Moreover, the GI50 in the experiment with KM-20L2, in the experiment on KM12, with LOX IMVI, with M19-MEL, in the experiment on NCI-H226 and with NCI-H460 was > 100 µM (inactive) in each case. For the same compound, the GI50 in the experiment with NCI-H522, in the experiment on OVCAR-5, with SF-539, with SNB-78, with TK-10 and in the experiment on UACC-62 was > 100 µM (inactive) each time.
Consider `COc1cccc(-c2cc(O)c3cc4c(cc3n2)OCO4)c1`, for which the GI50 with 786-0 is 0.107 µM (active); in the experiment on CCRF-CEM, 0.0757 µM (active); in the experiment on DLD-1, 0.126 µM (active); in the experiment with DMS-114, 0.232 µM (active); in the experiment with HL-60 it was 0.0605 µM (active); in the experiment on K562 it was 0.0446 µM (active). Besides, the GI50 with KM-20L2 was 0.19 µM (active); in the experiment with KM12, 0.0502 µM (active); with LOX IMVI, 0.0857 µM (active); in the experiment with M19-MEL it was 0.128 µM (active); in the experiment with NCI-H226, 0.198 µM (active); with NCI-H460, 0.142 µM (active). For the same compound, the GI50 is 0.0238 µM (active) with NCI-H522; 0.251 µM (active) in the experiment with OVCAR-5; 0.0603 µM (active) with SF-539; 0.195 µM (active) with SNB-78; 0.662 µM (active) with TK-10; 0.0531 µM (active) in the experiment on UACC-62.
